Test results: patent US20260191937A1, “AGENTS, COMPOSITIONS AND METHODS FOR MODULATING IMMUNITY” (The University of Queensland, priority 2022, published 2026)

B1: 6PGD: 6-phosphogluconate dehydrogenase ectopically expressed; retroviral Pgd overexpression in BMM; in b299 delivered as mRNA in DMONs (protein)
chain: MAQADIALIGLAVMGQNLILNMNDHGFVVCAFNRTVSKVDDFLANEAKGTKVVGAQSLKDMVSKLKKPRRVILLVKAGQAVDDFIEKLVPLLDTGDIIIDGGNSEYRDTTRRCRDLKAKGILFVGSGVSGGEEGARYGPSLMPGGNKEAWPHIKAIFQAIAAKVGTGEPCCDWVGDEGAGHFVKMVHNGIEYGDMQLICEAYHLMKDVLGMRHEEMAQAFEEWNKTELDSFLIEITANILKYRDTDGKELLPKIRDSAGQKGTGKWTAISALEYGMPVTLIGEAVFARCLSSLKEERVQASQKLKGPKVVQLEGSKKSFLEDIRKALYASKIISYAQGFMLLRQAATEFGWTLNYGGIALMWRGGCIIRSVFLGKIKDAFERNPELQNLLLDDFFKSAVDNCQDSWRRVISTGVQAGIPMPCFTTALSFYDGYRHEMLPANLIQAQRDYFGAHTYELLTKPGEFIHTNWTGHGGSVSSSSYNA
notes: 6-phosphogluconate dehydrogenase ectopically expressed; in b299 delivered as mRNA in DMONs

Experiments:
[1] = test system: Human monocyte-derived macrophages (HMDM); assay: Cytokine release (ELISA) from human monocyte-derived macrophages pre-treated with RL5P; type: cell-based
Experimental: (§1) FIG. 3 is a graphical representation showing the effect of R5LP treatment of macrophages on the release of cytokines IL-1β and TNF. (A-B) Human monocyte-derived macrophages (HMDM) were pre-treated with ribulose-5-phosphate (RL5P) for 16 h at the indicated concentrations. Nigericin-triggered IL-1β release from LPS-primed cells (A), as well as LPS-induced TNF (B) in culture supernatants were assessed by ELISA. (C-D) BMM were pre-treated for 16 h with RL5P at the indicated concentrations. Nigericin-triggered IL-1β release from LPS-primed cells (C), as well as LPS-induced TNF (D) in culture supernatants were assessed by ELISA. Data were compiled from six independent experiments (or donors) and are presented as mean±S.E.M. Statistical significance was determined using two-way ANOVA followed by Sidak's multiple comparison test (ns—not significant; * p<0.05; ** p<0.01).
(§2) FIG. 4 is a graphical representation showing the effect of R5LP treatment of macrophages on the release of cytokine IL-6. HMDM and BMM were pre-treated with the indicated concentrations of RL5P for 16 h, after which they were either stimulated with LPS (10 ng/mL) or infected with uropathogenic Escherichia coli (UPEC) strain EC958 (MOI 100) for 4 h. Supernatants were then assessed for secreted IL-6 by ELISA. Data were compiled from six independent experiments (or donors) and are presented as mean±SEM. Panel A presents IL-6 release (ng/mL), Panel B present IL-6 release normalized to LPS alone. Statistical significance was determined using repeated measure two-way ANOVA followed by Dunnett's multiple comparison test (A-B) (ns—not significant).
(§3) BMM were generated from indicated strains of mice, as previously described (Das Gupta et al., 2020, Cell Rep. 30:2712-2728.e2718). Bone marrow cells were cultured for 6 days in RPMI-1640 media (Thermo Fisher Scientific) supplemented with 10% FCS, 50 U/mL penicillin, 50 μg/mL streptomycin and 2 mM L-glutamine, in the presence of recombinant human colony-stimulating factor 1 (CSF-1), at either 1×10^4 U/mL (Chiron) or 150 ng/mL (The University of Queensland Protein Expression Facility). On day 6, BMM were harvested and replated at an appropriate density with fresh CSF-1, with cells being used in experiments on the following day. […]
(§4) BMM (5×10^5 cells/mL) or HMDM (5×10^5 cells/mL) were treated as indicated in individual figure legends. Supernatants were collected and assessed for secreted TNF. […] Supernatants were collected and analyzed for levels of IL-1β. […]

[2] = test system: bone marrow-derived macrophages (BMM); assay: Cytokine release (ELISA) from mouse bone marrow-derived macrophages pre-treated with RL5P; type: cell-based
Experimental: as §1, §2, §3, §4

[3] = test system: uropathogenic Escherichia coli (UPEC) strain EC958; assay: Growth of UPEC strain EC958 with or without H2O2 oxidative stress (OD600, 12 h); type: cell-based
Experimental: FIG. 5 is a graphical representation showing effect of increasing RL5P concentrations on the growth of uropathogenic Escherichia coli (UPEC) strain EC958 under conditions of oxidative stress in the form of 0.8 mM H2O2. (A) EC958 was cultured±H2O2 (0.8 mM) in the presence of the indicated concentrations of RL5P for 12 h, during which growth was assessed (A600 at the indicated time points); (B) Area under the curve analysis for the 12 h period was calculated thereafter and is presented in FIG. 5B. Data are compiled from four independent experiments and are presented as mean±SEM. Each symbol represents a different experiment. Statistical significance for (B) was determined using repeated measure two-way ANOVA followed by non-parametric Kruskal Wallis test followed by Dunn's multiple comparison test (ns—not significant; * p<0.05; **** p<0.0001).
FIG. 6 is a graphical representation showing effect of increasing RL5P concentrations on the growth of UPEC under conditions of oxidative stress in the form of 1 mM H2O2. (A) EC958 was cultured±H2O2 (1 mM) in the presence of the indicated concentrations of RL5P for 12 h, during which growth was assessed (A600 at the indicated time points); (B) EC958 was cultured in the presence of the indicated concentrations of RL5P and the absence of H2O2 for 12 h, during which growth was assessed (A600 at the indicated time points). Data are compiled from four independent experiments and are presented as mean±SEM.
FIG. 7 is a graphical representation showing the effect of RL5P and 6-phosphogluconate (6PG) on the on the growth of UPEC under conditions of oxidative stress in the form of H202. (A) EC958 was cultured±H2O2 (0.8 mM) in the presence of the indicated concentration of RL5P or 6PG for 12 h, during which growth was assessed (A600 at the indicated time points); (B). Each symbol represents a different experiment. Statistical significance for (B) was determined using repeated measure two-way ANOVA followed by non-parametric Kruskal Wallis test followed by Dunn's multiple comparison test (ns—not significant; * p<0.05; **** p<0.0001).
All bacterial strains were cultured at 37° C. on solid or liquid Luria-Bertani (LB) medium. The non-pathogenic E. coli K12 strain MG1655 (Blattner et al., 1997. Science. 277:1453-1462) and EC958, a representative strain of the globally-disseminated multidrug-resistant ST131 clone isolated from the urine of a patient with a urinary tract infection (Totsika et al., 2011, PloS one. 6:e26578-e26578; Petty et al., 2014, Proc Natl Acad Sci USA. 111:5694-5699), were used in this study. […] Bacterial growth was assessed by monitoring OD600 using a POLARstar Omega (BMG Labtech) at 20-30 min intervals.

[4] = test system: bone marrow-derived macrophages (BMM); assay: Retroviral overexpression of Pgd (6PGD) in BMM, cytokines by ELISA; type: cell-based, mouse
Experimental: FIG. 2 is a graphical representation showing the effect of over expression of the 6PGD gene on the release of cytokines IL-1β, TNF and IL-6. The Pgd gene was retrovirally overexpressed in BMM. Nigericin-triggered IL-1β release from LPS-primed cells (A), as well as LPS-induced TNF (B) and IL-6 (C), in culture supernatants were assessed by ELISA. Data were compiled from five independent experiments and are presented as mean±S.E.M. Statistical significance was determined using two-way ANOVA followed by Sidak's multiple comparison test (ns—not significant; * p<0.05; ** p<0.01).
Retroviral overexpression of target genes in primary macrophages was performed as previously described (Das Gupta et al., 2020, Cell Rep. 30:2712-2728.e2718). Briefly, 2×10^6 PlatE cells were transfected with 40 μg of the respective retroviral expression vectors using Lipofectamine 2000 (Thermo Fisher Scientific). At 24 h post-transfection, media were replaced and cells were incubated at 32° C. for 48 h for optimal virus production. Viral supernatants were filtered through a […] Millex-HV PVDF syringe filter (Merck) and supplemented with 1M HEPES, 10 μg/mL polybrene and CSF-1. Bone marrow progenitors treated with CSF-1 for 2 days were spin-infected (1000 g, 2 h, 35° C.) with viral supernatants in 6-well non-tissue culture plates. The cells were immediately supplemented with complete RPMI media, then incubated at 37° C. for 48 h. At 48 h post-transduction, cells were supplemented with complete RPMI media. On day 6 of macrophage differentiation, adherent cells were collected and plated for subsequent experiments.
BMM (5×10^5 cells/mL) or HMDM (5×10^5 cells/mL) were treated as indicated in individual figure legends. Supernatants were collected and assessed for secreted TNF. To assess secreted IL-1β by ELISA, cells were further treated with Nigericin for 1 h (2 h for HMDMs). Supernatants were collected and analyzed for levels of IL-1β. For experiments comparing macrophages derived from mice of different genotypes, MTT assays were performed in parallel to control for any differences in plating densities.

Molecule	inducible TNF production (secreted TNF) ([1]; HMDM pre-treated with RL5P for 16 h, ELISA)	Nigericin-triggered IL-1β release from LPS-primed cells ([1]; HMDM pre-treated with RL5P for 16 h, LPS, ELISA)	Suppression of IL-1β production in cells responding to Escherichia coli ([1]; HMDM, E. coli instead of LPS, effect in HMDM reduced to a lesser extent than in BMM)	inducible IL-6 production ([1]; HMDM, RL5P 16 h, then LPS (10 ng/mL) or UPEC EC958 (MOI 100) 4 h, ELISA)	inducible TNF production (secreted TNF) ([2]; BMM pre-treated with RL5P for 16 h, ELISA)	Nigericin-triggered IL-1β release from LPS-primed cells ([2]; BMM pre-treated with RL5P for 16 h, LPS, ELISA)	Suppression of IL-1β production in cells responding to Escherichia coli ([2]; BMM, E. coli instead of LPS)	inducible IL-6 production ([2]; BMM, RL5P 16 h, then LPS (10 ng/mL) or UPEC EC958 (MOI 100) 4 h, ELISA)	UPEC growth under oxidative stress ([3]; 0.8 mM H2O2)	UPEC growth under oxidative stress ([3]; 1 mM H2O2)	UPEC growth in the absence of oxidative stress ([3]; no H2O2)	LPS-induced IL-6 [4]	LPS-induced TNF [4]	inducible IL-1β response ([4]; Nigericin-triggered release from LPS-primed cells)
O=C(CO)[C@H](O)[C@H](O)COP(=O)([O-])[O][Na+] [RL5P, Disodium [(2R,3R)-2,3,5-trihydroxy-4-oxopentyl]phosphate]	dramatically reduced secreted TNF levels	suppressed LPS-inducible IL-1β production	much less pronounced	did not affect inducible IL-6 production	modest	suppressed LPS-inducible IL-1β production	much less pronounced	did not affect inducible IL-6 production	significantly impaired E. coli growth in a dose-dependent manner	also apparent	did not affect UPEC growth			
B1												unaffected	significantly reduced LPS-induced TNF	attenuated the inducible IL-1β response
